Values joined by “and” are separate entries in the source; they are usually repeats but may differ in a detail not shown here. Identical values can stand only once.
Legend:
[1] = Selectivity of 1: reaction with NO·; conditions: for Fluorescence: 15 min minus 0 min
Protocol: The probe 1 was also exposed to NO· at various concentrations. A NO· solution was generated by the addition of H2SO4 to NaNO2. A round-bottom flask containing a saturated solution of NaNO2 was connected to a series of three bubblers and one Erlenmeyer flask; the first two bubblers contained 30% NaOH, and the third contained ultrapure water. The flask contained ultrapure water (10 mL). The solutions were degassed with argon for 30 min. Then a 2 M solution of H2SO4 (1 mL) was added to the saturated NaNO2 to produce a 1.8 mM solution of NO· (assuming saturation at 25° C.) in the flask. A solution of 10 μM 1 in DMSO (20 μL) was added to 5:95 acetonitrile/50 mM pH 7 potassium phosphate buffer (160 μL). The NO· solution (20 μL) was then added to the mixture containing 1. The fluorescence was measured immediately and again after 15 min at 25° C. Similar results as the results for NO2^− and NO3^− were obtained for NO· (FIG. 22 and Table 13). The data in Table 13 is the fluorescence at 15 min minus the fluorescence at 0 min.

[2] = tested on: HeLa cells; experiment: Imaging of exogenously added H2O2 in HeLa cells; type: cell-based; conditions: 0.5 μM 1, 37° C.
Protocol: It was then attempted to image H2O2 within cells. HeLa cells were seeded on 35-mm glass bottom dishes (MatTek Corporation, Ashland, MA) and incubated with 0.5 μM 1 in 0.1% DMSO in DMEM (10% FBS with penicillin/streptomycin) prior to imaging. After washing with HBSS and replacing the media, H2O2 was added. The dish was inserted in a closed, thermo-controlled (37° C.) stage top incubator (Tokai Hit Co., Shizuoka-ken, Ja-pan) atop the motorized stage of an inverted Nikon TiE fluorescent microscope (Nikon Inc., Melville, NY) equipped with a 60× oil immersion optic (Nikon, CFI PlanFluor, NA 1.49) and NIS Elements Software. The sample was excited using the 470 nm line of a Lumencor diode-pumped light engine (SpectraX, Lumencor Inc., Beaverton OR). Fluorescence was detected using an ET-GFP filter set (Chroma Technology Corp) and ORCA-Flash 4.0 sCMOS camera (HAMAMATSU Corporation, Bridgewater, NJ).

[3] = tested on: endothelial cells; experiment: Localization of 1 in endothelial cells with MitoTracker Red, ionomycin stimulation; type: cell-based; conditions: ionomycin 10 μM
Protocol: To study the localization of 1, endothelial cells were simultaneously incubated with 1 μM MitoTracker® Red FM (ThermoFisher Scientific) for 20 min at 37° C. (FIG. 24D). The dish was inserted in a closed, thermo-controlled (37° C.) stage top incubator (Tokai Hit Co., Shizuoka-ken, Ja-pan) atop the motorized stage of an inverted Nikon TiE fluorescent microscope (Nikon Inc., Melville, NY) equipped with a 60× oil immersion optic (Nikon, CFI PlanFluor, NA 1.49) and NIS Elements Software. The sample was excited using the 555 nm line and detected using a TRITC filter set.

[4] = Selectivity of 1 against various ROS and RNS (FIG. 14B); conditions: O2^·−, ^1O2, ·OH, ClO^−, ONOO^−, tBuOOH, NO3^−, NO2, NO·
Protocol: Following the concentration dependence studies, the selectivity of 1 was assessed against O2^·−, ^1O2, ·OH, ClO^−, ONOO^−, 'BuOOH, NO3^−, NO2, and NO·. […] The production of some of these ROS required H2O2 as a reagent or generated H2O2 as a product, for which we carefully performed control experiments as detailed below. For example, a solution of 100 μM 1 in ethanol (20 μL) was added to 5:95 methanol/50 mM phosphate pH 7 buffer (140 μL). […] A control containing 100 μM 1 in ethanol (20 μL), 5:95 methanol/50 mM phosphate pH 7 buffer (160 μL), and 700 mM H2O2 (20 μL) was also generated. The solutions were allowed to incubate at 25° C. for 15 min prior to measuring fluorescence. […] Therefore, 1 is selective for H2O2 over O2^·−.

[5] = Selectivity of 1: reaction with ^1O2; conditions: for Fluorescence: 40 min minus 0 min
Protocol: Probe 1 was titrated with NaMoO4 and H2O2 to determine whether ^1O2 reacted with the probe 1. A solution of 100 μM 1 in ethanol (20 μL) was added to 5:95 methanol/50 mM phosphate pH 7 buffer (140 μL). Water, 1 mM sodium azide, or 104 U/mL catalase (20 μL) was added to the mixture. NaMoO4·2H2O (11.1 mg) was added to ultrapure water (2.00 mL). This solution was diluted to 20 μM, 200 μM, and 2.00 mM. H2O2 was diluted to 200 μM and 2.00 mM. Equal volumes of NaMoO4 solution and H2O2 were added together, and an aliquot (20 μL) was immediately transferred to the solution containing 1. The fluorescence intensity was measured immediately and again after incubation at 25° C. for 40 min. A large fluorescence increase was observed only in the samples containing […] of both Na2MoO4 and H2O2(FIG. 16 and Table 7). […] 10^4 UmL^−1 catalase was added to the solutions to verify that 1 indeed responded to excess H2O2 that had not reacted with the Na2MoO4. The addition of catalase abolished the fluorescence signal observed in the presence of high concentrations of H2O2(FIG. 16 and Table 7). The fluorescence values in Table 7 are the fluorescence at 40 min minus the fluorescence at 0 min.

Oc1ccc2c(c1)Oc1cc(O/C=C/C[Se]c3ccccc3)ccc1[C@@]21OCc2ccccc21 [Compound 1, (S,E)-6′-((3-(Phenylselanyl)prop-1-en-1-yl)oxy)-3H-spiro[isobenzofuran-1,9′-xanthen]-3′-ol]
reaction with NO· [1]: did not react | Fluorescence ([1]; 0 μM NO· or H2O2, pH 7, 25° C.): 4,567 and 5,018 and 6,300 | Fluorescence ([1]; 0.1 μM NO·): 5,344 and 5,827 and 5,393 | Fluorescence ([1]; 1 μM NO·): 6,268 and 5,961 and 5,430 | Fluorescence ([1]; 10 μM NO·): 6,104 and 6,207 and 5,735 | time to significant increase in fluorescence after H2O2 addition [2]: ≤ 30 s | time after the addition of ionomycin of first image showing increased fluorescence [3]: ≤ 8 s | reaction with other ROS and RNS relative to H2O2 [4]: little reaction was observed | cause of fluorescence increase (reaction with ^1O2) [5]: not by ^1O2 itself | Fluorescence ([5]; NaN3, NaMoO4 0 μM, 0 μM H2O2): 47,427 and 27,816 and 33,822 | Fluorescence ([5]; NaN3, NaMoO4 0 μM, 10 μM H2O2): 22,037 and 25,574 and 26,509 | Fluorescence ([5]; NaN3, NaMoO4 0 μM, 100 μM H2O2): 86,779 and 47,879 and 71,128 | Fluorescence ([5]; NaN3, NaMoO4 1 μM, 0 μM H2O2): 17,056 and 15,590 and 28,737 | Fluorescence ([5]; NaN3, NaMoO4 1 μM, 10 μM H2O2): 47,687 and 30,921 and 55,460 | Fluorescence ([5]; NaN3, NaMoO4 1 μM, 100 μM H2O2): 75,276 and 58,618 and 52,801 | Fluorescence ([5]; NaN3, NaMoO4 10 μM, 0 μM H2O2): 48,985 and 26,189 and 39,286 | Fluorescence ([5]; NaN3, NaMoO4 10 μM, 10 μM H2O2): 41,011 and 44,837 and 41,481 | Fluorescence ([5]; NaN3, NaMoO4 10 μM, 100 μM H2O2): 128,720 and 99,199 and 137,922 | Fluorescence ([5]; NaN3, NaMoO4 100 μM, 0 μM H2O2): 41,150 and 60,360 and 31,422 | Fluorescence ([5]; NaN3, NaMoO4 100 μM, 10 μM H2O2): 36,764 and 62,417 and 61,596 | Fluorescence ([5]; NaN3, NaMoO4 100 μM, 100 μM H2O2): 427,359 and 459,433 and 473,881 | Fluorescence ([5]; catalase, NaMoO4 1 μM, 100 μM H2O2): 54,776 and 34,302 and 31,904 | Fluorescence ([5]; catalase, NaMoO4 10 μM, 100 μM H2O2): 66,499 and 39,161 and 54,221 | Fluorescence ([5]; catalase, NaMoO4 100 μM, 100 μM H2O2): 137,047 and 103,725 and 102,097 | Fluorescence ([5]; no additive, NaMoO4 0 μM, 0 μM H2O2): 59,711 and 30,413 and 38,407 | Fluorescence ([5]; no additive, NaMoO4 0 μM, 100 μM H2O2): 48,948 and 86,970 and 68,803 | Fluorescence ([5]; no additive, NaMoO4 1 μM, 0 μM H2O2): 36,829 and 38,478 and 40,456 | Fluorescence ([5]; no additive, NaMoO4 1 μM, 10 μM H2O2): 27,103 and 23,437 and 25,142 | Fluorescence ([5]; no additive, NaMoO4 1 μM, 100 μM H2O2): 64,673 and 74,322 and 79,262 | Fluorescence ([5]; no additive, NaMoO4 10 μM, 10 μM H2O2): 33,243 and 34,233 and 26,543 | Fluorescence ([5]; no additive, NaMoO4 10 μM, 100 μM H2O2): 113,217 and 132,450 and 119,014 | Fluorescence ([5]; no additive, NaMoO4 100 μM, 0 μM H2O2): 24,734 and 26,617 and 17,702 | Fluorescence ([5]; no additive, NaMoO4 100 μM, 10 μM H2O2): 38,768 and 55,874 and 53,722 | Fluorescence ([5]; no additive, NaMoO4 100 μM, 100 μM H2O2): 468,686 and 476,166 and 482,448

Reference: patent US12540150B1, “Fluorogenic probe using a Mislow-Evans rearrangement for real-time imaging of hydrogen peroxide” (University of Pittsburgh—Of the Commonwealth System of …, priority 2020, dated 2026)
